Measured values: US20190225650A1, “PEPTIDOMIMETIC MACROCYCLES AND USE THEREOF IN REGULATING HIF1ALPHA” (AILERON THERAPEUTICS, INC., priority 2013, published 2019)
Bridge positions count the residues as written; N and C are the ends. Square brackets hold non-standard residues; d marks the D form. Peptide text beside a SMILES is read from it. S5 = C=CCCC[C@](C)(N)C(=O)O; Nle = CCCC[C@H](N)C(=O)O

Target: T1, flag-tagged HIF1α (AA 786-826) / His6-tagged p300 (AA 323-423) complex (Homo sapiens, UniProt Q09472)
T1 construct: His6-tagged p300 (AA 323-423); made in house; host or cells: E. coli (pETDuet vector)
Test: HIF1α p300 displacement assay (TR FRET, +CHAPS)
Format: binding
Details: read-out: IC50 (nM) (HIF1α_p300 Displacement + CHAPS)
Procedure: The ability of peptides to displace HIF1α c-terminal trans-activation domain from p300-CH was measured by a TR FRET assay. A complex of flag-tagged HIF1α (AA 786-826) and His6-tagged p300 (AA 323-423) was co-expressed using pETDuet vector (EMDMillipore, Bellrica Mass.) and purified from E. coli in the presence of 0.1 mM ZnSO4. The complex was diluted to 300 nM final in complete assay media and competitor peptides were added. The complete assay media contained 150 mM NaCl (Sigma +S5150 or equivalent), 20 mM HEPES pH 7.4 (Boston Bioproducts, Ashland, Mass.; #BB-2076), 7.5 mM CHAPS (Thermo #28300 or equivalent), and 1 mM DTT. Protein and peptide were incubated at room temperature for 1 hour before the addition of anti-Flag-K and anti-6×HIS-D2 (CisBio, Bedford Mass.) HTRF reconstitution buffer (50 mM Phosphate pH 7, 0.8 Potassium Flouride, BSA 0.2%)^1 to a final concentration of 0.5 μM and 4 nM respectively. […] The reaction was read on a TECAN F500 plate reader with settings recommended by CisBio. The ratio of donor to acceptor fluorescence was calculated. The resulting data was analyzed with Graphpad Prism 5.0. IC50 values were calculated for both proteins using the One Site Fit-LogIC50 equation and presented in the column “IC50 (nM) (HIF1α_p300 Displacement+CHAPS)” of Table 6. ^1 Cisbio USA, Bedford, Mass.; 61HISDLB (lot 007A), 61FG2KLB (024A), HTRF Buffer (62RB3RDF)

Compound: CCCC[C@H](NC(=O)[C@H](C)NC(=O)[C@@H](NC(=O)[C@@H](NC(=O)[C@H](CC(C)C)NC(=O)[C@]1(C)CCCC=CCCC[C@](C)(NC(=O)[C@H](CCC(=O)O)NC(=O)[C@H](CC(=O)O)NC(=O)[C@@H](NC(=O)[C@H](Cc2ccccc2)NC(C)=O)[C@@H](C)CC)C(=O)N[C@@H](C(C)C)C(=O)N[C@@H](CC(C)C)C(=O)N[C@@H](CCCC)C(=O)N1)C(C)C)[C@@H](C)CC)C(=O)N[C@@H](C)C(=O)N[C@@H](CC(C)C)C(=O)N[C@@H](CO)C(=O)N[C@@H](CO)C(=O)N[C@H](C(N)=O)[C@@H](C)CC [SP-129] (Ac-FIDE[S5]VL[Nle][S5]LVIA[Nle]ALSSI-NH2; staple 5-9)
- IC50: > 700 nM
